Reference: PMC9408991, “Antitumor Effects of a New Retinoate of the Fungal Cytotoxin Illudin M in Brain Tumor Models” (International Journal of Molecular Sciences, 2022)
Like-named read-outs stand apart in the source and are kept apart here.

How the values were obtained:
[1] = test system: KBv1^+Vbl cervix carcinoma cells; assay: MTT cell viability assay, KBv1+Vbl cervix carcinoma; type: cell-based; conditions: Homo sapiens, KB-V1/Vbl, read-out: Inhibitory concentration IC50
Experimental: 518A2 (Department of Radiotherapy, Medical University of Vienna, Vienna, Austria) melanoma, KB-V1^Vbl (ACC-149) cervix carcinoma, MCF-7^Topo (ACC-115) breast carcinoma, HT29 (ACC-299) colon carcinoma were cultivated in Dulbecco’s Modified Eagle Medium (DMEM) supplemented with 10% fetal bovine serum and 1% antibiotic-antimycotic at 37 °C, 5% CO2, and 95% humidity. To keep MCF-7^Topo and KB-V1^Vbl cells resistant, the maximum-tolerated doses of topotecan or vinblastine were added to the cell culture medium 24 h after every passage. The human HL60 leukemia cells were obtained from the German National Resource Center for Biological Material (DSMZ), Braunschweig. Neuroectodermal stem cells NE-4C (ATCC No. CRL-2925), primary mouse astrocytes, rat glioma C6 (ATCC No. CCL-107) and human glioma U87 (ATCC No. HTB-14) were used.
Non-GBM cells (5 × 10^4 cells/mL, 100 µL/well) were grown in 96-well plates for 24 h. […] After the addition of 12.5 µL of a 0.5% MTT solution in PBS, the cells were incubated for 3 h at 37 °C so that the water-soluble MTT could be converted to formazan crystals. Then, the plates were centrifuged (300× g, 5 min, 4 °C), the medium withdrawn, and the formazan dissolved in 25 µL of DMSO containing 10% sodium dodecylsulfate (SDS) and 0.6% acetic acid for at least 2 h at 37 °C. In the case of the HL60 cells, after 2 h, the precipitate of formazan crystals was redissolved in a 10% solution of SDS in DMSO containing 0.6% acetic acid.

[2] = test system: NCH644^GFP+ glioma stem-like cells; assay: Ex vivo tumor growth assay on adult organotypic brain slice cultures; type: cell-based
Source text: For further investigation of drug efficacy and selectivity, an ex vivo tumor growth assay employing organotypic brain slice cultures of adult murine brains were used. For this purpose, GFP-expressing NCH644 (NCH644^GFP+) glioma stem-like cells were transplanted onto these slices, and after 1 day, the treatment was started and renewed three times per week, similar to our previous studies. These cultures are suitable ex vivo models, which simulate original brain architecture and the presence of vessels, including angiogenesis and microvascular proliferation as well as specific homing of GBM cells toward those vessels, while requiring much fewer laboratory animals when compared with common in vivo animal drug tests.
Adult organotypic brain slice culture was carried out as described previously. Briefly, the brains from adult C57BL/6 J (Envigo, Horst, The Netherlands) were dissected, and dura mater was removed after the mice were euthanized. Subsequently, mouse brains were placed in warm (35–40 °C) 2% low-melting agarose (Carl Roth, Karlsruhe, Germany) and cut on a Vibratome VT1000 (Leica, Wetzlar, Germany) in 150 µm thick sections. These sections were placed on Milli-cell culture inserts (Merck KGaA, Darmstadt, Germany) and cultured in 6-well plates using FCS-free medium consisting of DMEM/F12 supplied with 1× B27 and 1× N2 supplement and 100 U/mL penicillin and 100 µg/mL streptomycin (all from Gibco, Darmstadt, Germany). One day later, multiple spheres were placed on the mouse brain slices. Adequate spheres were prepared by seeding 275.000 NCH644^GFP+ cells in a total volume of 5 mL in a T25 flask. One day after sphere transplantation, pictures were taken (day 0), and the treatment was started, which was refreshed 3 times per week. Tumor growth was evaluated using FIJI, after which pictures were taken regularly with a Nikon SMZ25 stereomicroscope equipped with a P2-SHR Plan Apo 2 × objective operated by NIS elements software. As the tumor size was normalized to the size on day 0, growth curves were created.

[3] = test system: astrocytes and neurons in primary neuronal cultures; assay: Immunostaining of GFAP and βIII-tubulin in primary neuronal cultures; type: cell-based, mouse; conditions: 1 µM; for effect on GFAP filaments of astrocytes: 48 h exposure
Experimental: Astroglia cells grown on poly-L-lysine-coated glass cover slips were fixed with 4% paraformaldehyde in PBS for 20 min at room temperature and then permeabilized with Triton X-100 (0.1% v/v in PBS; 5 min). Nonspecific antibodies were blocked by incubation with 3% FBS in PBS (room temperature, 1 h). α-GFAP antibody (rabbit, DAKO) was used in a dilution of 1:2000 and was visualized by anti-rabbit IgG Alexa 594 (1:1000). DAPI (4′,6-diamidino-2-phenylindole) was used for nuclei staining. Fluorescence images were captured manually on a Zeiss Axiovert 200 M microscope fitted with 20- to 60-fold zoom and a Zeiss AxioCam MRm digital camera. Further applied antibodies were tubulin III (Sigma T5076), used at a dilution of 1:1000, and Annexin V. Cy3.18 (Sigma A4963).
Figure 4 Immunostaining of primary neurons derived from E14, 5 forebrains treated with 1 µM of 1, 2 or all-trans retinoic acid (RA) plus 1. Blue: nuclei stained with DAPI; green: tubulin stained with βIII-tubulin specific antibody; red: GFAP stained with α-GFAP antibody. Fluorescence microscope Zeiss Axiovert 200 M, 63× objective, 1024 × 1024 res. Scale bar: 50 µm.

[4] = test system: U251 glioblastoma cells; assay: MTT cell viability assay, U251 glioblastoma; type: cell-based; conditions: Homo sapiens, read-out: Inhibitory concentration IC50
Experimental: (§1) U251 (formerly known as U-373 MG; ECACC 09063001), Mz54 (CVCL_M406) human glioblastoma cell lines were cultured in DMEM+GlutaMax supplemented with 10% fetal bovine serum and 1% penicillin/streptomycin mixture. The human glioma cell line Mz54 was obtained from the Dept. of Neurosurgery, University Medical Centre, Johannes Gutenberg University Mainz, Germany, where this line was isolated from a recurrent grade IV glioblastoma. U251 and Mz54 cells were used in passages between 10 and 25 after re-authentication and 40 to 55 after culture establishment, respectively. Only mycoplasma-free cell cultures were used.
(§2) […] Afterward, 10 µL of a 5 mg/mL MTT solution in PBS was added to the cells for 3 h at 37 °C. Then, the spheres were centrifuged shortly to collect the cells on the bottom of the plate, and the medium was removed by careful pipetting for both adherently grown and floating sphere GBM cultures. Afterward, formazan was dissolved in a mixture (24:1 v:v) of isopropanol and 1 M HCl using 100 µL for adherent cells by shaking the plates for at least 20 min. The absorbance of formazan (λ = 570 nm), and background (λ = 630 nm) was measured with a microplate reader (Tecan Spark, Tecan Deutschland GmbH, Crailsheim, Germany).

[5] = test system: MZ-54 glioblastoma cells; assay: MTT cell viability assay, MZ-54 glioblastoma; type: cell-based; conditions: Homo sapiens, read-out: Inhibitory concentration IC50
Experimental: as §1, §2

[6] = 5 µM, treatment renewed three times per week

CC1=C(/C=C/C(C)=C/C=C/C(C)=C/C(=O)O[C@@H]2C3=C(C)C4(CC4)[C@@](C)(O)C(=O)C3=CC2(C)C)C(C)(C)CCC1 [Compound 2, illudin M retinoate]
IC50 ([1]; 24 h exposure): 1600 ± 400 nM | IC50 ([1]; 48 h exposure): 1200 ± 100 nM | antitumor activity (tumor growth normalized to day 0) [2, 6]: showed antitumor activity | antitumor activity (tumor growth normalized to day 0) ([2]; 0.1 and 0.5 µM): significantly reduced | toxicity in the tumor-free regions of the brain slices ([2]; organotypic brain slices): no signs of toxicity | effect on GFAP filaments of astrocytes [3]: did not cause similar alterations to astrocytes | IC50 ([4]; U-251, U251, 48 h exposure): 4510 ± 1300 nM | IC50 ([5]; MZ-54, 48 h exposure): 5480 ± 1200 nM

CC1=C2C(=CC(C)(C)[C@@H]2O)C(=O)[C@](C)(O)C12CC2 [Compound 1, illudin M]
IC50 ([1]; 24 h exposure): 3 ± 1 nM | IC50 ([1]; 48 h exposure): 2 nM | antitumor activity (tumor growth normalized to day 0) [2, 6]: showed antitumor activity | effect on neuronal networks ([3]; 48 h): did not completely disorganize neuronal networks | effect on GFAP filaments of astrocytes [3]: markedly pitted | IC50 ([4]; U-251, U251, 24 h exposure): 300 ± 50 nM | IC50 ([4]; U-251, U251, 48 h exposure): 120 ± 20 nM | IC50 ([5]; MZ-54, 24 h exposure): 550 ± 160 nM | IC50 ([5]; MZ-54, 48 h exposure): 60 ± 10 nM
